Assay results taken from patent US20050042219A1, “Engineered Fab' fragment anti-tumor necrosis factor alpha in combination with disease modifying anti-rheumatic drugs” (priority 2002, published 2005).
Marks after values point to notes of the source that are not given here.

Experiments:
[1] = PHA-001 study: PK interaction study with methotrexate in RA patients; settings: single dose of CDP-870 400 mg SC; oral MTX 5-17.5 mg/week
[2] = system: patients with active RA; experiment: Celltech-002 study: single IV infusion, ACR responder rates; type: in vivo, human; settings: for ACR20 responder rate / ACR50 responder rate: week 8
Protocol: DMARD therapy was discontinued one month prior to study start; concomitant nonsteroidal anti-inflammatory drug (NSAID) and corticosteroid use was allowed provided the doses had been stabilized prior to entry into the study. […] Patients were assessed over an 8-week period.
Patients were assessed for an additional 8-week period.
(§1) The overall effect of CDP870 in reducing the signs and symptoms of RA was summarized using the following global index: • American College of Rheumatology (ACR) Core Set of Disease Activity Measures for Rheumatoid Arthritis Clinical Trials. A patient was considered an ACR 20/50/70 responder if 20/50/70% or greater improvement in number of swollen joints and tender joints and a 20/50/70% or greater improvement in three of the five remaining ACR core set measures (Patient's Assessment of Pain by VAS, Patient's Global Assessment of Disease Activity, Physician's Global Assessment of Disease Activity, Patient's Assessment of Physical Function by mHAQ, acute phase reactant value) was observed; and […]

[3] = Half-life of the PEGylated Fab′ fragment; type: in vivo; settings: PEG chains linked by a single maleimide group
[4] = human, in vivo
[5] = system: patients with active RA; experiment: Celltech-004 study: SC every 4 weeks, ACR responder rates; type: in vivo, human; settings: for ACR-20 responder rate / ACR-50 responder rate / ACR-70 responder rate: week 12
Protocol: Again, DMARD therapy was discontinued one month prior to study start; concomitant NSAID and corticosteroid use was allowed provided the doses had been stabilized prior to entry into the study.
The protocol was subsequently amended based on the results of the double-blind portion of Panel 1, to increase the dose to 400 mg SC every 4 weeks for an additional 108 weeks.
as §1

[6] = molecular target: T1, TNFβ (lymphotoxin) (Homo sapiens, UniProt P01374); experiment: Neutralization of TNFβ (lymphotoxin)
T1 sequence (P01374 35-205): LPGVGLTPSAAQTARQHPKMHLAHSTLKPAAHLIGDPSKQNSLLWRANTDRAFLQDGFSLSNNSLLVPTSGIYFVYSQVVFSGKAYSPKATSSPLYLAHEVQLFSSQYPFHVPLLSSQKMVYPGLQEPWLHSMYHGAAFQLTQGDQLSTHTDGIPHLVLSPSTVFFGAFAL

Molecule: CN(Cc1cnc2nc(N)nc(N)c2n1)c1ccc(C(=O)N[C@@H](CCC(=O)O)C(=O)O)cc1 [MTX, methotrexate]
- mean dose-adjusted MTX plasma concentrations, MTX alone versus coadministration with CDP-870 [1]: not significantly different

Molecule: CDP-870: PEGylated anti-TNFα Fab′ fragment derived from antibody hTNF40, linked via a cysteine to a lysyl-maleimide linker bearing two methoxy PEG residues
- ACR20 responder rate ([2]; 1 mg/kg single IV): 25 % of Patients
- ACR50 responder rate ([2]; 1 mg/kg single IV): 13 % of Patients
- ACR20 responder rate ([2]; 5 mg/kg single IV): 75 % of Patients
- ACR50 responder rate ([2]; 5 mg/kg single IV): 13 % of Patients
- ACR20 responder rate ([2]; 20 mg/kg single IV): 75 % of Patients
- ACR50 responder rate ([2]; 20 mg/kg single IV): 50 % of Patients
- efficacy in reducing the signs and symptoms of RA ([2]; single IV dose of 1, 5 or 20 mg/kg, over 8 weeks): efficacious
- half-life [3]: about 11 days
- mean plasma concentration at 55 days postdose [4]: 2.74 µg/mL
- CL/F (plasma clearance) ([4]; sc): 0.021 L/h
- t½ ([4]; sc): 10.738 days
- mean t½ ([4]; sc, 400 mg): 10.7 days
- overall plasma exposure (AUC) over the 55-day monitoring period ([4]; sc, 400 mg): approximately 22000 hr*μg/mL
- ACR-20 responder rate ([5]; 50 mg SC every 4 weeks): 21 % of Patients
- ACR-50 responder rate ([5]; 50 mg SC every 4 weeks): 8 % of Patients
- ACR-70 responder rate ([5]; 50 mg SC every 4 weeks): 5 % of Patients
- ACR-20 responder rate ([5]; 100 mg SC every 4 weeks): 20 % of Patients
- ACR-50 responder rate ([5]; 100 mg SC every 4 weeks): 5 % of Patients
- ACR-70 responder rate ([5]; 100 mg SC every 4 weeks): 3 % of Patients
- ACR-20 responder rate ([5]; 200 mg SC every 4 weeks): 34 % of Patients
- ACR-50 responder rate ([5]; 200 mg SC every 4 weeks): 17* % of Patients
- ACR-70 responder rate ([5]; 200 mg SC every 4 weeks): 7 % of Patients
- ACR-20 responder rate ([5]; 400 mg SC every 4 weeks): 60* % of Patients
- ACR-50 responder rate ([5]; 400 mg SC every 4 weeks): 40* % of Patients
- ACR-70 responder rate ([5]; 400 mg SC every 4 weeks): 29* % of Patients
- ACR-20 responder rate ([5]; 600 mg SC every 4 weeks): 64* % of Patients
- ACR-50 responder rate ([5]; 600 mg SC every 4 weeks): 33* % of Patients
- ACR-70 responder rate ([5]; 600 mg SC every 4 weeks): 21* % of Patients
- ACR-20 responder rate ([5]; 800 mg SC every 4 weeks): 79* % of Patients
- ACR-50 responder rate ([5]; 800 mg SC every 4 weeks): 47* % of Patients
- ACR-70 responder rate ([5]; 800 mg SC every 4 weeks): 21* % of Patients
- efficacy in treating the signs and symptoms of RA ([5]; doses ≧400 mg SC every 4 weeks): efficacious
- neutralization of TNFβ (lymphotoxin) [6]: does not neutralize
